Source: patent US20260083865A1, “PROSTATE SPECIFIC MEMBRANE ANTIGEN (PSMA) LIGANDS AND USE THEREOF” (priority 2022, published 2026)
Where two headings read alike, the source gives them in different places. Numbered stars: 1 amine (or outer) side, 2 acyl side, 3 side chain; on linkers, the order of the positions; unused ones are H or OH. Bridge positions count the residues as written; N and C are the ends. Square brackets hold non-standard residues; d marks the D form. Peptide text beside a SMILES is read from it. * marks the point of attachment. X14 = NC(=O)[C@H](CCCCNC(=O)CCCC[C@@H]1SC[C@@H]2NC(=O)N[C@@H]21)NC(=O)CCC(=O)NCCCOCCOCCOCCCNC(=O)CCC(=O)NCCCOCCOCCOCCCN*; DOTA = O=C(O)CN1CCN(CC(=O)O)CCN(CC(=O)*)CCN(CC(=O)O)CC1; Phe(4-Cl) = N[C@@H](Cc1ccc(Cl)cc1)C(=O)O; X1 = O=C(CC1CCN([*:1])CC1)[*:2]; Tle = CC(C)(C)[C@H](N)C(=O)O; Nle = CCCC[C@H](N)C(=O)O; Deg = CCC(N)(CC)C(=O)O; AEEA = NCCOCCOCC(=O)O; Aib = CC(C)(N)C(=O)O

Tests used:
[1] = target: T1, PSMA-expressing C4-2 cells (Homo sapiens, UniProt Q04609); test: FACS binding assay (competition with 50 nM PSM-0183); conditions: read-out: pIC50 [C4-2] CAT (converted)
T1 construct: PSMA-expressing C4-2 cells (ATCC, Cat. No. CRL-3314) were cultured in RPMI-1640; host or cells: C4-2 cells
Outline: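 C4-2 cells were incubated 1 h at 4 °C with 50 nM AF488-labelled peptide PSM-0183 plus increasing test compound concentrations, then washed twice in ice-cold buffer. Median fluorescence in the AF488 channel was read by flow cytometry. IC50/pIC50 was derived by 4PL fitting of MFI versus concentration.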

[2] = target: T2, Fc-fusion protein of human PSMA (hPSMA-Fc) (Homo sapiens, UniProt Q04609); test: Surface plasmon resonance assay (Biacore T200, single cycle kinetic); format: binding; conditions: hPSMA-Fc, 25° C., read-out: pKD CAT (converted)
T2 construct: purchased Acro Biosystems PSA-H5264
Outline: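 hPSMA-Fc was captured (~1000 RU) on an Fc-binding-peptide CM5 chip, and compounds were run in single cycle kinetic mode at 25° C in HBST with 0.1% DMSO. Double-blank-corrected sensorgrams were fitted to a 1:1 Langmuir model to give KD, reported as pKD.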

[3] = pIC50 category of FACS binding, C4-2 cells
[4] = pKD category for PSMA SPR activity assay
[5] = FACS binding, C4-2 cells, competition with 50 nM PSM-0183, category
[6] = SPR, single cycle kinetic, category

T2 sequence (Q04609 44-750 limits assumed): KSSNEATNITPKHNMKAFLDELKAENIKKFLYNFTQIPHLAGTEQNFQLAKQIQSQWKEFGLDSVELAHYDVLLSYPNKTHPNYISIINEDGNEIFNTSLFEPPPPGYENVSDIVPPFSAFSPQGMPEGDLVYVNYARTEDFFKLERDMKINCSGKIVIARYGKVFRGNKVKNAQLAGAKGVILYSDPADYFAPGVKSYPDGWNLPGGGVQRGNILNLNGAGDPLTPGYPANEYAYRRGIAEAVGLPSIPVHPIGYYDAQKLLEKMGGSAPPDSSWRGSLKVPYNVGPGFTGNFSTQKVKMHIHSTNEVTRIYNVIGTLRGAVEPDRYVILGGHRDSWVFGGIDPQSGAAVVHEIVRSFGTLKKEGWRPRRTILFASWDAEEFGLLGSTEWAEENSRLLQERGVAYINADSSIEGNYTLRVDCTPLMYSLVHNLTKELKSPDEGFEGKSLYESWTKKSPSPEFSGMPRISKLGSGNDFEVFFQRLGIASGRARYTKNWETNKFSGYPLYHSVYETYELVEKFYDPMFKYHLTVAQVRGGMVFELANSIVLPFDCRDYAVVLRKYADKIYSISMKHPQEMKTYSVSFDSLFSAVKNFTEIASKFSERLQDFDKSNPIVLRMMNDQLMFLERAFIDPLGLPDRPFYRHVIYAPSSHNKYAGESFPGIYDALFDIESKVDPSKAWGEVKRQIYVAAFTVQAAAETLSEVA
T1 sequence (Q04609 whole entry): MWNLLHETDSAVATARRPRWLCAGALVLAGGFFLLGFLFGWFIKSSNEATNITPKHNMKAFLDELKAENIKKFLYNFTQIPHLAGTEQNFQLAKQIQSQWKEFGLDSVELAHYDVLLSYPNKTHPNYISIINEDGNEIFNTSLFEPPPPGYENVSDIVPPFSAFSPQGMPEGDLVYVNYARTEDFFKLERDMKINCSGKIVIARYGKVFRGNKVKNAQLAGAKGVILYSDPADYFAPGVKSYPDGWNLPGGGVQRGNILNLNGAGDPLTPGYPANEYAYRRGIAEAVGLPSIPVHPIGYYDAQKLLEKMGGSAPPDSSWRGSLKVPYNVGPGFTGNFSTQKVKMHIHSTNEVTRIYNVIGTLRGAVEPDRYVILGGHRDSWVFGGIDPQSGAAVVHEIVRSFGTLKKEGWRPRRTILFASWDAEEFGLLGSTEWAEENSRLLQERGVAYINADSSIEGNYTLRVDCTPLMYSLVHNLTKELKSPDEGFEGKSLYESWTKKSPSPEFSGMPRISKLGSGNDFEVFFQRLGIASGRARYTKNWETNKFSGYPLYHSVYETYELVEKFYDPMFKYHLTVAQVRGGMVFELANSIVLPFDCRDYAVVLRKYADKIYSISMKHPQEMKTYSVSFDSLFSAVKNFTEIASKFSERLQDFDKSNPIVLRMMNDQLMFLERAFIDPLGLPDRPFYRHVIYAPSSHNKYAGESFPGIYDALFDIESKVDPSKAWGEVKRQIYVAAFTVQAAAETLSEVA

Row | IC50 [1, 3] [µM] | Kd [2, 4] [µM] | SMILES | further results
1 | < 0.2 | < 0.0126 | CCC1(CC)NC(=O)[C@H](CCCNC(=N)N)NC(=O)[C@H](CCCCN)NC(=O)[C@@H](NC(=O)[C@H](Cc2ccccc2)NC(=O)C(C)(C)NC(=O)[C@@H](NC(C)=O)[C@@H](C)O)CSSC[C@@H](C(=O)N[C@H](C(=O)N[C@H](C(N)=O)[C@@H](C)O)C(C)(C)C)NC(=O)[C@H](CC(N)=O)NC1=O [PSM-0375, Ac-Thr-Aib-Phe-[Cys-Lys-Arg-Deg-Asn-Cys]-Tle-Thr-NH2] (Ac-T[Aib]FCKR[Deg]NC[Tle]T-NH2; disulfide 4-9) | –
2 | 0.2 to 1.26 | 0.0126 to 0.126 | CC(=O)N[C@H](C(=O)NC(C)(C)C(=O)N[C@@H](Cc1ccccc1)C(=O)N[C@H]1CSSC[C@@H](C(=O)NC(C)(C)C(=O)N[C@H](C(N)=O)[C@@H](C)O)NC(=O)[C@H](CC(N)=O)NC(=O)C(C)(C)NC(=O)[C@H](CCCNC(=N)N)NC(=O)[C@H](CCCCN)NC1=O)[C@@H](C)O [PSM-0394, Ac-Thr-Aib-Phe-[Cys-Lys-Arg-Aib-Asn-Cys]-Aib-Thr-NH2] (Ac-T[Aib]FCKR[Aib]NC[Aib]T-NH2; disulfide 4-9) | –
3 | < 0.2 | 0.0126 to 0.126 | CCCC[C@H](NC(=O)[C@@H]1CSSC[C@H](NC(=O)[C@H](Cc2ccccc2)NC(=O)[C@H](C)NC(=O)[C@H](CO)NC(C)=O)C(=O)N[C@@H](CCCCN)C(=O)N[C@@H](CCCNC(=N)N)C(=O)N[C@@H](C)C(=O)N[C@@H](CC(N)=O)C(=O)N1)C(=O)N[C@H](C(=O)N[C@@H](CC(=O)O)C(N)=O)[C@@H](C)O [PSM-0469, Ac-Ser-Ala-Phe-[Cys-Lys-Arg-Ala-Asn-Cys]-Nle-Thr-Asp-NH2] (Ac-SAFCKRANC[Nle]TD-NH2; disulfide 4-9) | –

Continued, compound first:

Row | SMILES | IC50 [1, 3] [µM] | Kd [2, 4] [µM] | further results
4 | C[C@@H](O)[C@H](NC(=O)CN1CCN(CC(=O)O)CCN(CC(=O)O)CCN(CC(=O)O)CC1)C(=O)NC(C)(C)C(=O)N[C@@H](Cc1ccccc1)C(=O)N[C@H]1CSSC[C@@H](C(=O)N[C@H](C(N)=O)C(C)(C)C)NC(=O)[C@H](CC(N)=O)NC(=O)C(C)(C)NC(=O)[C@H](CCCNC(=N)N)NC(=O)[C@H](CCCCN)NC1=O [PSM-0184, DOTA-Thr-Aib-Phe-[Cys-Lys-Arg-Aib-Asn-Cys]-Tle-NH2] ({DOTA}-T[Aib]FCKR[Aib]NC[Tle]-NH2; disulfide 4-9) | – | – | IC50 [1, 5]: < 0.2 µM; Kd [2, 6]: 0.0126 to 0.126 µM
5 | CC(=O)NC(=N)NCCC[C@@H]1NC(=O)[C@H](CCCCN)NC(=O)[C@@H](NC(=O)[C@H](Cc2ccc(Cl)cc2)NC(=O)C(C)(C)NC(C)=O)CSSC[C@@H](C(=O)N[C@H](C(=O)N[C@H](C(=O)N2CCC(CC(=O)N[C@H](CCCCNC(=O)CN3CCN(CC(=O)O)CCN(CC(=O)O)CCN(CC(=O)O)CC3)C(N)=O)CC2)[C@@H](C)O)C(C)(C)C)NC(=O)[C@H](CC(N)=O)NC(=O)C(C)(C)NC1=O [PSM-0298, Ac-Aib-Pcf-[Cys-Lys-Arg(Ac)-Aib-Asn-Cys]-Tle-Thr-Cmp-lys(DOTA)-NH2] (Ac-[Aib][Phe(4-Cl)]CKR(Ac)[Aib]NC[Tle]T[X1][dK](DOTA)-NH2; disulfide 3-8) | – | – | IC50 ([1]; FACS binding, PSMA-expressing C4-2 cells, pIC50 category): 0.2 to 1.26 µM; Kd ([2]; PSMA SPR assay, pKD category): 0.0126 to 0.126 µM
6 | C[C@@H](O)[C@H](NC(=O)CC1CCN(C(=O)CN2CCN(CC(=O)O)CCN(CC(=O)O)CCN(CC(=O)O)CC2)CC1)C(=O)NC(C)(C)C(=O)N[C@@H](Cc1ccc(Cl)cc1)C(=O)N[C@H]1CSSC[C@@H](C(=O)N[C@H](C(=O)N[C@H](C(=O)NCCCOCCOCCOCCCNC(=O)CCC(=O)NCCCOCCOCCOCCCNC(=O)CCC(=O)N[C@@H](CCCCNC(=O)CCCC[C@@H]2SC[C@@H]3NC(=O)N[C@@H]32)C(N)=O)[C@@H](C)O)C(C)(C)C)NC(=O)[C@H](CC(N)=O)NC(=O)C(C)(C)NC(=O)[C@H](CCCNC(=N)N)NC(=O)[C@H](CCCCN)NC1=O [PSM-0250, DOTA-Cmp-Thr-Aib-Pcf-[Cys-Lys-Arg-Aib-Asn-Cys]-Tle-Thr-Ttds-Ttds-Lys(Bio)-NH2] ({DOTA}-[X1]T[Aib][Phe(4-Cl)]CKR[Aib]NC[Tle]T-X14; disulfide 5-10) | – | – | IC50 [1, 5]: 0.2 to 1.26 µM; Kd [2, 6]: < 0.0126 µM
7 | C[C@@H](O)[C@H](NC(=O)[C@@H](NC(=O)[C@@H]1CSSC[C@H](NC(=O)[C@H](Cc2ccccc2)NC(=O)C(C)(C)NC(=O)[C@@H](NC(=O)COCCOCCNC(=O)CN2CCN(CC(=O)O)CCN(CC(=O)O)CCN(CC(=O)O)CC2)[C@@H](C)O)C(=O)N[C@@H](CCCCN)C(=O)N[C@@H](CCCNC(=N)N)C(=O)NC(C)(C)C(=O)N[C@@H](CC(N)=O)C(=O)N1)C(C)(C)C)C(N)=O [PSM-0505, DOTA-020c-Thr-Aib-Phe-[Cys-Lys-Arg-Aib-Asn-Cys]-Tle-Thr-NH2] ({DOTA-AEEA}-T[Aib]FCKR[Aib]NC[Tle]T-NH2; disulfide 4-9) | < 0.2 | < 0.0126 | –
